Reference: ChEMBL document CHEMBL1149529 (Bioorg Med Chem Lett, 2007)

Assays:
[1] = Oral bioavailability in rat at 15 mg/kg, po; type: ADME, organism-based; conditions: in vivo
[2] = Clearance in rat at 5 mg/kg, iv; type: ADME, organism-based; parameters: dose 5 mg/kg, route intravenous; conditions: in vivo

bioavailability [1] | clearance [2] | SMILES
45% | 46.7 mL/min/kg | CN(CC1=CC2C(=O)C(C(=O)NCc3ccc(Cl)cc3)=CN(C)C2S1)C[C@@H](O)c1ccccn1 (stereo partly specified)
30% | 23.3 mL/min/kg | Cc1c(CN(C)C[C@@H](O)c2ccccn2)sc2c(=O)c(C(=O)NCc3ccc(Cl)cc3)cn(C)c12
29% | 35 mL/min/kg | Cc1c(CN(C)C[C@@H](O)c2ncccn2)sc2c(=O)c(C(=O)NCc3ccc(F)cc3)cn(C)c12
